Laboratory results as given in US20090074666A1 (priority 2005, published 2009).
Where two headings read alike, the source gives them in different places.

Key:
[1] = system: serum antibodies of test subjects (anti-human IgG detection); conditions: N-terminal biotin conjugate on streptavidin plate
Description: Biotinylated peptides were bound to streptavidin-coated plates (Pierce).
The peptides sequences were as follows: • Biotin-aminohexanoyl-PWVRGV (custom product, CSS, Edinburgh, Scotland) • Biotin-aminohexanoyl-SYACKR (custom product, CSS, Edinburgh, Scotland) • Biotin-aminohexanoyl-SKAYSNC (custom product, CSS, Edinburgh, Scotland)
Prior to peptide immobilization, plates were blocked with 150 μl of 0.5% BSA in 10 mM sodium phosphate/0.15 M NaCl/0.05% Tween-20, pH 7.2, for 1.5 h at RT. The plate was then washed three times with 10 mM sodium phosphate/0.15 M NaCl/0.05% Tween-20, pH 7.2.
Peptides were dissolved in 10 mM sodium phosphate/0.15 M NaCl, pH 7.2, to a concentration of 0.5 nmol/ml. One hundred microliters of the peptide solutions (50 pmol of the peptide) were added to the wells and allowed to react overnight at +4° C. The plates were then washed four times with 10 mM sodium phosphate/0.15 M NaCl/0.05% Tween-20/0.2% BSA, pH 7.2 (washing buffer).
Serum was obtained from six healthy individuals (29-44 years of age), and dilutions 1:10, 1:100 and 1:1000 were prepared from all but one serum sample in the washing buffer. The serum obtained from person nr. 5 was instead diluted 1:25, 1:250 and 1:2500 in the washing buffer. One hundred microliters of each serum sample was added to the wells and incubated for 60 mins at RT. […] All incubations were performed in duplicates.
After serum incubation the plate was washed with the washing buffer 8 times with at least 5 min incubation period between change of the washing liquid.
The bound serum antibodies were quantitated by adding anti-human IgG (rabbit)—HRP conjugate (Sigma) in 1:30000 dilution to each well. After one hour incubation at RT, the plate was washed five times with the washing buffer. One hundred microliters of TMB+ color reagent (Dako Cytomation) was then added. The absorbance was read at 650 nm after 15 mins. Immediately after this measurement 100 μl of 1 M sulphuric acid was added and the absorbance read at 450 nm.

[2] = system: serum antibodies of test subjects (anti-human IgG detection); assay: ELISA of serum antibodies on maleimide-activated plates; format: binding; conditions: Cys-conjugate on maleimide plate
Description: Peptides containing cysteine were bound through the cysteine sulfhydryl group to maleimide activated plates (Reacti-Bind™ Maleimide activated plates, Pierce).
One hundred microliters of the peptide solution (0.5 nmol of peptide) was added to each well and allowed to react overnight at +4° C.
The unreacted maleimide groups were blocked with 2-mercaptoethanol: 150 μl of 1 mM 2-mercaptoethanol in 10 mM sodium phosphate/0.15 M NaCl/2 mM EDTA, pH 7.2 was added to each well and allowed to react for 1 hour at RT.
The serum obtained from person nr. […] Control wells contained no peptide but both 2-mercaptoethanol and BSA blockings were employed. All incubations were performed in duplicates.

A/2/Japan/305/57 H2N2 = format: binding, human influenza virus A; parameters: key: “+” = binding; “−” = no binding; “(+)” = trace binding
A/Shangdong/9/93 H3N2 = format: binding, human influenza virus A; parameters: key: “+” = binding; “−” = no binding; “(+)” = trace binding
A/Taiwan/1/86 H1N1 = format: binding, human influenza virus A; parameters: key: “+” = binding; “−” = no binding; “(+)” = trace binding
A/New Caledonia/20/99 = format: binding, human influenza virus A; parameters: key: “+” = binding; “−” = no binding; “(+)” = trace binding
A/Beijing/262/95 H1N1 = format: binding, human influenza virus A; parameters: key: “+” = binding; “−” = no binding; “(+)” = trace binding
A/Kiev/301/94 H3N2 = format: binding, human influenza virus A; parameters: key: “+” = binding; “−” = no binding; “(+)” = trace binding
A/X31, A/Aichi/3/75 H3N2 = format: binding, human influenza virus A; parameters: key: “+” = binding; “−” = no binding; “(+)” = trace binding
A/PR/8/34 H1N1 = format: binding, human influenza virus A; parameters: key: “+” = binding; “−” = no binding; “(+)” = trace binding
[3] = system: human influenza virus A strains; format: binding

Q: Which results are given for Biotin-aminohexanoyl-SYACKR [Peptide 2]?
A: Approximate immune reactions of sera against synthetic peptides ([1]; Serum 1, listed as Biotin-aminohexanoic-SYACKR): weakest reaction; Approximate immune reactions of sera against synthetic peptides ([1]; Serum 2, listed as Biotin-aminohexanoic-SYACKR): strongest immune response; Approximate immune reactions of sera against synthetic peptides ([1]; Serum 5, listed as Biotin-aminohexanoic-SYACKR): strongest immune response; Approximate immune reactions of sera against synthetic peptides ([2]; Serum 5): weaker; Approximate immune reactions of sera against synthetic peptides ([2]; Serum 6): strongest response

Q: What does the source list for Globoside?
A: Binding of influenza virus strain to glycolipids (A/2/Japan/305/57 H2N2): −; Binding of influenza virus strain to glycolipids (A/Shangdong/9/93 H3N2): −; Binding of influenza virus strain to glycolipids (A/Taiwan/1/86 H1N1): −; Binding of influenza virus strain to glycolipids (A/New Caledonia/20/99): −; Binding of influenza virus strain to glycolipids (A/Beijing/262/95 H1N1): −; Binding of influenza virus strain to glycolipids (A/Kiev/301/94 H3N2): −; Binding of influenza virus strain to glycolipids (A/X31, A/Aichi/3/75 H3N2): −; Binding of influenza virus strain to glycolipids (A/PR/8/34 H1N1): −

Q: What does the source list for “Biotin-aminohexanoyl-SKAYSNC [Peptide 1]”?
A: Approximate immune reactions of sera against synthetic peptides ([1]; Serum 1, listed as Biotin-aminohexanoic-SKAYSNC): weakly or non-reactive; Approximate immune reactions of sera against synthetic peptides ([1]; Serum 3, listed as Biotin-aminohexanoic-SKAYSNC): strongest immune response; Approximate immune reactions of sera against synthetic peptides ([1]; Serum 4, listed as Biotin-aminohexanoic-SKAYSNC): strongest immune response; Approximate immune reactions of sera against synthetic peptides ([1]; Serum 5, listed as Biotin-aminohexanoic-SKAYSNC): weakly or non-reactive; Approximate immune reactions of sera against synthetic peptides ([1]; Serum 6, listed as Biotin-aminohexanoic-SKAYSNC): weakly or non-reactive; Approximate immune reactions of sera against synthetic peptides ([2]; Serum 1): weakly or non-reactive; Approximate immune reactions of sera against synthetic peptides ([2]; Serum 2): reacted; Approximate immune reactions of sera against synthetic peptides ([2]; Serum 3): reacted; Approximate immune reactions of sera against synthetic peptides ([2]; Serum 4): reacted; Approximate immune reactions of sera against synthetic peptides ([2]; Serum 5): weakly or non-reactive; Approximate immune reactions of sera against synthetic peptides ([2]; Serum 6): strongest

Q: Which “activity on solid phase, in words” value [3] does the source give for “Neu5Acα2-3Galβ1-4GlcNAcβ1-3(Neu5Acα2-3Galβ1-4GlcNAcβ1-6)Galβ1-4Glc [Oligosaccharide 9]” here?
A: The value was “active especially when presented in polyvalent form on a solid phase”.
